The source of these data is ChEMBL document CHEMBL3124749, “Synthesis, biological evaluation and molecular modeling study of novel tacrine-carbazole hybrids as potential multifunctional agents for the treatment of Alzheimer's disease” (Eur J Med Chem, 2014).

The source made the active and inactive calls. The calls are words filed in the database; no cut-off is given here.

One assay concerns C6. Kind of assay: cells. To be noted: Rattus norvegicus, C6, 24 h, read-out: Activity.
Assay [1] deals with NG108-15. Kind of assay: cells. Conditions: Murinae, NG108-15, read-out: Activity.
Description: Neuroprotective activity against H2O2-induced oxidative stress in mouse/rat NG108-15 cells assessed as cell viability at 100 uM incubated for 2 hrs prior to H2O2 challenge for 2 hrs by MTT assay
The next assay addresses Cholinesterase (Homo sapiens, UniProt P06276).
For assay [2], the system named is NG108-15. The experiment in a line: Neuroprotective activity against H2O2-induced oxidative stress in mouse/rat NG108-15 cells assessed as increase in cell viability at 10 uM incubated for 2 hrs prior to H2O2 challenge for 2 hrs by MTT assay. Type of assay: functional, cell-based.
Assay [3] concerns Mus musculus. The experiment in a line: Inhibition of scopolamine-induced cognitive deficit in ICR mouse assessed as time spent swimming in Q1 quadrant at 50 micromol/kg, ip administered 1 hr prior to scopolamine challenge measured after 30 mins by morris water maze test (reference value: 11.76 +/-0.49s). Format: functional.
Assay [4] has as its system Mus musculus. Kind of assay: Inhibition of scopolamine-induced cognitive deficit in ICR mouse assessed as time spent swimming in Q1 quadrant at 25 micromol/kg, ip administered 1 hr prior to scopolamine challenge measured after 30 mins by morris water maze test (reference value: 11.76 +/-0.49s). Format: functional.
Assay [5] deals with NG108-15. Kind of assay: Neuroprotective activity against H2O2-induced oxidative stress in mouse/rat NG108-15 cells assessed as increase in cell viability at 1 uM incubated for 2 hrs prior to H2O2 challenge for 2 hrs by MTT assay. Type of assay: functional, cell-based. On the technique in general: Tetrazolium assays rely on reduction of a dye to a coloured formazan, in cell work by metabolically active cells.

In assay [6] the test system is Mus musculus. Kind of assay: Inhibition of scopolamine-induced cognitive deficit in ICR mouse assessed as spontaneous alternation behaviour at 50 micromol/kg, ip administered 1 hr prior to scopolamine challenge measured after 30 mins by Y-maze test (reference value: 40.22 +/-3.54%). Type of assay: functional. Further details: scale not given: the % may be the effect or the level left.

Assay [7] has as its system Mus musculus. The experiment in a line: Inhibition of scopolamine-induced cognitive deficit in ICR mouse assessed as spontaneous alternation behaviour at 25 micromol/kg, ip administered 1 hr prior to scopolamine challenge measured after 30 mins by Y-maze test (reference value: 40.22 +/-3.54%). On the set-up: scale not given: the % may be the effect or the level left. Format: functional.

Cholinesterase, sequence (P06276 whole entry): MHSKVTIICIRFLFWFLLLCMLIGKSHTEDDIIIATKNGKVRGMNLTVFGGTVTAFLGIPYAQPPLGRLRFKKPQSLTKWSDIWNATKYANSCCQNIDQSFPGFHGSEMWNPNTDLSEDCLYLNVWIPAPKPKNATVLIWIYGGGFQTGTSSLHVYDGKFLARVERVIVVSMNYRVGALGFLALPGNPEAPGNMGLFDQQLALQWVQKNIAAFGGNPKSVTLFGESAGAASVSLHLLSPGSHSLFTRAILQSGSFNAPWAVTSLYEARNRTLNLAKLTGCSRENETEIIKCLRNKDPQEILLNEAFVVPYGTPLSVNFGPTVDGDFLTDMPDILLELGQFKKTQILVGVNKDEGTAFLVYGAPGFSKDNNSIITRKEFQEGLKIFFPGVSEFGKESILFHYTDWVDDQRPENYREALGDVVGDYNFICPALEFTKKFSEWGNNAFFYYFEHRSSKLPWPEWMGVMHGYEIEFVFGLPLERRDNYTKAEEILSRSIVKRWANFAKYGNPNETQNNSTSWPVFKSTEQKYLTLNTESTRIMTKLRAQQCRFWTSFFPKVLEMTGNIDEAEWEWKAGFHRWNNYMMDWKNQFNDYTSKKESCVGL
Description for C6: Neuroprotective activity against Abeta1-42 peptide-induced neurotoxicity in rat C6 cells assessed as cell viability at 100 uM after 24 hrs by MTT assay
Description for Cholinesterase: Inhibition of BuChE in human serum using butyrylthiocholine iodide as substrate measured every 30s for 5 mins by Ellman's spectrophotometric method

For orientation: IC50 means the concentration at which inhibition is half-maximal. On to `CC(C)=CCc1c(O)c(/C=N/CCCCCNc2c3c(nc4ccccc24)CCCC3)cc2c1[nH]c1ccccc12`, for which the viability at 100 µM with C6 worked out at 59.4%; in the assay on NG108-15 [1], 68.8%. For the same compound, on Cholinesterase, the IC50 stood at 19.4 µM. Further, in the assay on NG108-15 [2], the result was Active.

On to `COc1ccc2c(c1)[nH]c1c(CC=C(C)C)c(O)c(C=O)cc12`, for which the viability at 100 µM in the assay on NG108-15 [1] is 65.5%. For the same compound, the IC50 at Cholinesterase is more than 100 µM.

Take `COc1ccc2c(c1)[nH]c1c(CC=C(C)C)c(O)c(/C=N/CCCCCNc3c4c(nc5ccccc35)CCCC4)cc12`: the Time in the assay on Mus musculus [3] is on record as 17.86 s; in the assay with Mus musculus [4], 17.21 s. The viability at 100 µM amounted to 66.3% in the assay with C6 and 78.4% in the assay with NG108-15 [1]. The result in the assay with NG108-15 [5] was Active. On Cholinesterase, this compound showed an IC50 of 52.1 µM. Besides, the Activity in the assay on Mus musculus [6] is recorded as 59.8%; in the assay with Mus musculus [7], 53.88%.

For the compound `CC(C)=CCc1c(O)c(C=O)cc2c1[nH]c1ccccc12` [HEPTAPHYLLINE], the viability at 100 µM with NG108-15 [1] was 59.8%. Besides, the IC50 against Cholinesterase was more than 100 µM.

Turning to `COc1ccc2c(c1)[nH]c1c(CC=C(C)C)c(O)c(/C=N/CCCNc3c4c(nc5ccccc35)CCCC4)cc12`, the viability at 100 µM with C6 turned out to be 63%; with NG108-15 [1] it was 74.7%. The result in the assay with NG108-15 [5] was Active.
